In brackets after ≈: the same amount, converted by molar mass.
Columns and labels:
Staphylococcus aureus [1] = test: Antibacterial activity against drug-resistant Staphylococcus aureus USA300 JE2 assessed as inhibition of bacterial growth; format: functional
Staphylococcus aureus [2] = test: Antibacterial activity against drug-sensitive Staphylococcus aureus ATCC25923 assessed as inhibition of bacterial growth; format: functional
Staphylococcus aureus [3] = test: Ex vivo antibacterial activity against methicillin-resistant Staphylococcus aureus assessed as inhibition of bacterial growth by cell infection model; format: functional
[4] = Cytotoxicity against human HepG2 cells; format: toxicity, cell-based
[5] = Metabolic stability in human liver microsomes assessed as parent compound remaining measured after 30 mins; format: ADME, Microsome; settings: read-out: Stability
[6] = Metabolic stability in rat liver microsomes assessed as parent compound remaining measured after 30 mins; format: ADME, Microsome; settings: read-out: Stability
[7] = Metabolic stability in mouse liver microsomes parent compound remaining measured after 30 mins; format: ADME, Microsome; settings: read-out: Stability
[8] = Cytotoxicity against African green monkey Vero cells; format: toxicity, cell-based, Chlorocebus sabaeus
[9] = Cytotoxicity against HFL1 cells; format: toxicity, cell-based; settings: human
[10] = Cytotoxicity against mouse L929 cells; format: toxicity, cell-based
[11] = Cytotoxicity against CHO-K1 cells; format: toxicity, cell-based, Cricetulus griseus; settings: Chinese hamster
[12] = Cytotoxicity against mouse NIH3T3 cells; format: toxicity, cell-based
[13] = Half life in rat at 2 mg/kg, iv; format: ADME, organism-based; settings: in vivo
[14] = AUC(0 to 24 hrs) in rat at 2 mg/kg, iv; format: ADME, organism-based; settings: in vivo
[15] = AUC (0 to infinity) in rat at 2 mg/kg, iv; format: ADME, organism-based; settings: in vivo
[16] = Clearance in rat at 2 mg/kg, iv; format: ADME, organism-based; settings: in vivo
[17] = Oral bioavailability in rat at 5 mg/kg; format: ADME, organism-based; settings: in vivo
[18] = target: Voltage-gated inwardly rectifying potassium channel KCNH2 (Homo sapiens, UniProt Q12809); test: Inhibition of hERG by binding assay; format: toxicity
Voltage-gated inwardly rectifying potassium channel KCNH2, sequence (Q12809 whole entry): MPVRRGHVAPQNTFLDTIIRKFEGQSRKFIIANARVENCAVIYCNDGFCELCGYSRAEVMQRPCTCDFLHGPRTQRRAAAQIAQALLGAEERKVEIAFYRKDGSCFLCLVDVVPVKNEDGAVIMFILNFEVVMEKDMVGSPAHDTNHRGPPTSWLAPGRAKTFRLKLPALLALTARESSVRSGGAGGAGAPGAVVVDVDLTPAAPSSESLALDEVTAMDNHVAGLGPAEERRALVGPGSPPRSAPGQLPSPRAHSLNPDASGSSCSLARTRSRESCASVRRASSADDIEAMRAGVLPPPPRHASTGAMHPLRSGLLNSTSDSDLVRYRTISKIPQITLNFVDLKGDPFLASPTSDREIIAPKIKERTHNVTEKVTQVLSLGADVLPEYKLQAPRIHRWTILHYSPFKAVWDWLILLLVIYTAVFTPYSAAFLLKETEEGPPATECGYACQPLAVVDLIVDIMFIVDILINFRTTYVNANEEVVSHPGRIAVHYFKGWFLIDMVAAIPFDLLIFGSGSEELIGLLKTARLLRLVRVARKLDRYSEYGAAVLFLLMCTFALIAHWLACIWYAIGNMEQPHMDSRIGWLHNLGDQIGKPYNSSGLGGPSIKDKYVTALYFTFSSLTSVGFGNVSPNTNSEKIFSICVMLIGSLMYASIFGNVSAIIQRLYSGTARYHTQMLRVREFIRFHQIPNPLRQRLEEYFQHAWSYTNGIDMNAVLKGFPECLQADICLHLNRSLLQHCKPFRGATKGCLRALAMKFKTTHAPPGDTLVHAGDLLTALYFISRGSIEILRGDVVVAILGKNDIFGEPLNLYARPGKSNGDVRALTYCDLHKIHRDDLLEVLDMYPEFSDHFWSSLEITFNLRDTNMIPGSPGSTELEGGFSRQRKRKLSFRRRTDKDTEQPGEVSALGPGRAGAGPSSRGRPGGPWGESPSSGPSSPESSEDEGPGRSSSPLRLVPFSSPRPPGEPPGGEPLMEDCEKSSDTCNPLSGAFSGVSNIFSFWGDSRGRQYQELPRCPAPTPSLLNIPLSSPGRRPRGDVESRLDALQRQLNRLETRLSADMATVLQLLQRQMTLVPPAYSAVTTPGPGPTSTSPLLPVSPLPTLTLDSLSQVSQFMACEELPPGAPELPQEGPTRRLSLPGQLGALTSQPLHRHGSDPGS

[19] = Cmax in rat at 5 mg/kg, po or 2 mg/kg, iv; format: ADME, organism-based; settings: in vivo

Row | Compound | MIC50 (Staphylococcus aureus [1]) [µM] | MIC50 (Staphylococcus aureus [2]) [µM] | MIC50 (Staphylococcus aureus [3]) [µM] | other results
1 | CC(=O)c1c(Nc2ccc(F)cc2F)[nH]c2c(F)cc(F)cc2c1=O | 3.84 (≈ 1.35 µg/mL) | 4.41 (≈ 1.54 µg/mL) | 9.48 (≈ 3.32 µg/mL) | 
2 | CC(=O)c1c(N2CCCCC2)[nH]c2c(F)cc(F)cc2c1=O | > 20 | > 20 |  | 
3 | CC(=O)c1c(NCc2ccc(F)cc2F)[nH]c2c(F)cc(F)cc2c1=O | > 20 | > 20 |  | 
4 | COc1ccc(CNc2[nH]c3c(F)cc(F)cc3c(=O)c2C(C)=O)cc1 | > 20 | > 20 |  | 
5 | CC(=O)c1c(Nc2cc(F)cc(F)c2)[nH]c2c(F)cc(F)cc2c1=O | > 20 | > 20 |  | 
6 | CC(C)C(=O)c1c(Nc2ccc(F)cc2F)[nH]c2c(Cl)cc(Cl)c(Cl)c2c1=O | 0.06 (≈ 0.0267 µg/mL) | 0.05 (≈ 0.0223 µg/mL) | 3.9 (≈ 1.74 µg/mL) | IC50 [4]: > 256 µM; remaining at 0.5 h [5]: 95.6%; remaining at 0.5 h [6]: 81.9%; remaining at 0.5 h [7]: 68.1%; IC50 [8]: 61.3 µM; IC50 [9]: 10.6 µM; IC50 [10]: > 100 µM; IC50 [11]: 4.9 µM; IC50 [12]: 67.5 µM; half-life [13]: 25.6 h; AUC [14]: 31.97 uM.hr/ml; AUC [15]: 175.71 uM.hr/ml; clearance [16]: 0.5 mL/min/kg; bioavailability [17]: > 99.9%; IC50 [18]: 60 µM; Cmax [19]: 5.91 uM/ml
7 | CN[C@H](CC(C)C)C(=O)N[C@H]1C(=O)N[C@@H](CC(N)=O)C(=O)N[C@H]2C(=O)N[C@H]3C(=O)N[C@H](C(=O)N[C@H](C(=O)O)c4cc(O)cc(O)c4-c4cc3ccc4O)[C@H](O)c3ccc(c(Cl)c3)Oc3cc2cc(c3O[C@@H]2O[C@H](CO)[C@@H](O)[C@H](O)[C@H]2O[C@H]2C[C@](C)(N)[C@H](O)[C@H](C)O2)Oc2ccc(cc2Cl)[C@H]1O [VANCOMYCIN] |  | 1.97 (≈ 2.86 µg/mL) |  | 
8 | CC(=O)c1c(NCc2ccc(F)cc2)[nH]c2c(F)cc(F)cc2c1=O | > 20 | > 20 |  | 
9 | CC(C)C(=O)c1c(Nc2ccc(F)c(F)c2F)[nH]c2c(F)cc(F)cc2c1=O | 0.2 (≈ 0.0793 µg/mL) | 0.18 (≈ 0.0713 µg/mL) | 0.71 (≈ 0.281 µg/mL) | IC50 [4]: 63.7 µM; IC50 [8]: 86.1 µM; AUC [14]: 28.3 uM.hr/ml; AUC [15]: 28.9 uM.hr/ml; CL ([16]; iv, 2 mg/kg): 1.2 mL/min/kg; bioavailability [17]: > 55.8%; IC50 [18]: > 100 µM; Cmax [19]: 2.32 uM/ml
10 | CCN(CC)CCCC(C)Nc1[nH]c2c(F)cc(F)cc2c(=O)c1C(C)=O (centres undefined) | > 20 | > 20 |  | 
11 | CC(=O)c1c(Nc2ccc(F)c(F)c2F)[nH]c2c(F)cc(F)cc2c1=O | 0.95 (≈ 0.35 µg/mL) | 1.11 (≈ 0.409 µg/mL) | 6.79 (≈ 2.5 µg/mL) | 
12 | CC(=O)c1c(Nc2ccc(Cl)cc2Cl)[nH]c2c(Cl)cc(Cl)c(Cl)c2c1=O | 0.27 (≈ 0.122 µg/mL) | 0.28 (≈ 0.126 µg/mL) | 34.8 (≈ 15.7 µg/mL) | 
13 | CC(C)C(=O)c1c(Nc2ccc(F)cc2F)[nH]c2c(F)cc(F)cc2c1=O | 1.27 (≈ 0.48 µg/mL) | 1.36 (≈ 0.515 µg/mL) | 10 (≈ 3.79 µg/mL) | 
14 | CC(=O)c1c(Nc2ccc(Cl)cc2Cl)[nH]c2c(Cl)ccc(C(F)(F)F)c2c1=O | 0.41 (≈ 0.184 µg/mL) | 0.44 (≈ 0.198 µg/mL) | 15.2 (≈ 6.83 µg/mL) | 
15 | CC(=O)c1c(N2CCOCC2)[nH]c2c(F)cc(F)cc2c1=O | > 20 | > 20 |  | 
16 | CC(C)C(=O)c1c(Nc2ccc(Cl)cc2Cl)[nH]c2c(F)cc(F)cc2c1=O | 0.19 (≈ 0.0781 µg/mL) | 0.2 (≈ 0.0822 µg/mL) | 1.45 (≈ 0.596 µg/mL) | IC50 [4]: 39 µM
17 | CC[C@H]1OC(=O)[C@H](C)[C@@H](O[C@H]2C[C@@](C)(OC)[C@@H](O)[C@H](C)O2)[C@H](C)[C@@H](O[C@@H]2O[C@H](C)C[C@H](N(C)C)[C@H]2O)[C@](C)(O)C[C@@H](C)C(=O)[C@H](C)[C@@H](O)[C@]1(C)O [ERYTHROMYCIN] |  | 0.74 (≈ 0.543 µg/mL) |  | 
18 | CC(=O)c1c(Nc2ccc(Cl)cc2Cl)[nH]c2c(F)cc(F)cc2c1=O | 0.39 (≈ 0.149 µg/mL) | 0.41 (≈ 0.157 µg/mL) | 10.1 (≈ 3.88 µg/mL) | 
19 | CC(C)C(=O)c1c(Nc2ccc(F)c(F)c2F)[nH]c2c(Cl)cc(Cl)c(Cl)c2c1=O | 0.05 (≈ 0.0232 µg/mL) | 0.04 (≈ 0.0185 µg/mL) | 0.57 (≈ 0.264 µg/mL) | IC50 [4]: 31.2 µM
20 | COc1ccc(Nc2[nH]c3c(F)cc(F)cc3c(=O)c2C(C)=O)cc1 | > 20 | > 20 |  | 

Reference: ChEMBL document CHEMBL6114933, “Discovery of 3-acyl-2-anilino-1,4-dihydroquinolin-4-one derivatives as potential inhibitors of methicillin-resistant Staphylococcus aureus” (Bioorg Med Chem Lett, 2025)
